Test results from patent publication US20240373849A1, “INSECT NEUROPEPTIDE ANALOGUES” (THE UNIVERSITY COURT OF THE UNIVERSITY OF GLASGOW, priority 2020, published 2024).

Legend:
[1] = format: in vitro ADME, Drosophila melanogaster
Protocol: (§1) Enzyme digests were performed using aminopeptidase, endopeptidase, carboxypeptidase, or Drosophila melanogaster Malpighian tubule tissue extract. Peptide digests were performed in triplicate alongside ‘mock’ digests, where protease was substituted with water to determine peptide stability in aqueous media at 37° C. Several peptides were tested, including 1st generation AH56 and 3rs generation AH259. These are biostable in the presence of purified proteases for >24 hours; and for >3 hours to insect tissue extracts which are enriched for proteases.

[2] = test system: aminopeptidase, endopeptidase, carboxypeptidase; format: in vitro ADME
Protocol: as §1

[3] = test system: bumblebees (Bombus terrestris); assay: Bumblebee acute oral toxicity test; format: in vivo
CapaR = biological target: T1, CapaR (Drosophila melanogaster, UniProt Q8ITC7); assay: Measurement of intracellular Ca2+ in S2 cells transfected with CapaR (agonist response); format: cell-based; conditions: 10^−7 M; activity normalised to that of native Capa2 (designated 100%)
T1 construct: transiently transfected with the apoaequorin ORF; expressed in transfected cells; host or cells: Drosophila melanogaster S2 cells, transient transfection, expression induced with CuSO4
T1 sequence (Q8ITC7 1-477): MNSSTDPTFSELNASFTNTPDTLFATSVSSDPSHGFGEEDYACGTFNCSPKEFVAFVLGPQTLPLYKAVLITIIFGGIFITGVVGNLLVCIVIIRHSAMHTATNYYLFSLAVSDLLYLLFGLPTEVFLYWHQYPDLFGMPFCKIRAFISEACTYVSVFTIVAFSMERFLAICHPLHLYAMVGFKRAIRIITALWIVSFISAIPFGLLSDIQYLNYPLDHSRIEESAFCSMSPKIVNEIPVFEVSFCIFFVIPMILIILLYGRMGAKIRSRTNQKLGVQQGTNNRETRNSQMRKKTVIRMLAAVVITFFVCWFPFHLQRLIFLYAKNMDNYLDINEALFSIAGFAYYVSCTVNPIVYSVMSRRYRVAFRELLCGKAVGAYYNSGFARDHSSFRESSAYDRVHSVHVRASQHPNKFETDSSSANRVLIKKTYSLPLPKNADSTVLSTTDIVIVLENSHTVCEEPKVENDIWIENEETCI
Protocol: Drosophila melanogaster S2 cells, cultured under standard conditions (1) were transiently transfected with the apoaequorin ORF (Radford J C, Davies S A, Dow J A. Systematic G-protein-coupled receptor analysis in Drosophila melanogaster identifies a leucokinin receptor with novel roles. J Biol Chem. 2002; 277:38810-38817) and a receptor ORF construct, and expression induced using CuSO4. Transfected S2 cells were harvested and incubated with 2.5 μM coelenterazine in the dark at RT for 1-2 h as described (ibid). 25,000 cells were then placed in 135 μl Schneider's medium supplemented with 10% FCS in a well of a white polystyrene 96-well plate (Berthold Technologies). Bioluminescence recordings were carried out using a Mithras LB940 automated 96-well plate reader (Berthold Technologies) and MikroWin software. 15 μl of each of different peptides were applied to final concentrations as required.
Peptides were tested at 10^−7M.
At the end of each recording samples were disrupted by the addition of 100 μl lysis solution, and the [Ca^2+] concentrations calculated as previously described (Rosay P, Davies S A, Yu Y, Sozen A, Kaiser K, et al. Cell-type specific calcium signalling in a Drosophila epithelium. J Cell Sci. 1997; 110:1683-1692).
For the Capa1 and Capa2 peptides, the relevant native control peptide (D. melanogaster Capa1 or Capa2 respectively) was used as a control. Control agonist activity was normalised to 100% and activity of neuropeptide analogues is expressed relative to that.

CC(C)C[C@H](N=C(N(C)C)N(C)C)C(=O)N(C)[C@H](C(=O)N[C@@H](C)C(=O)N[C@@H](Cc1ccccc1)C(=O)N1CCC[C@H]1C(=O)N[C@@H](CCCNC(=N)N)C(=O)N[C@H](C(N)=O)C(C)C)C(C)C [AH259, Guanidyl-L-(Me)V-AFPRV-NH2]
biostable to insect tissue extracts enriched for proteases [1]: > 3 h
biostable in the presence of purified proteases [2]: > 24 h
lethal effect on bumblebees ([3]; 1×10^−5 M in 50% sucrose, 0.1% ATPlus, oral): No lethal effect
safety towards B. terrestris in the bumblebee oral toxicity assay ([3]; in vivo, po): safe
CapaR Ca^2+ Agonist response (CapaR): 12%
